Target: T1, ACE (angiotensin-I converting enzyme, from rabbit lung) (Oryctolagus cuniculus, UniProt P12822)
T1 sequence (P12822 34-1310): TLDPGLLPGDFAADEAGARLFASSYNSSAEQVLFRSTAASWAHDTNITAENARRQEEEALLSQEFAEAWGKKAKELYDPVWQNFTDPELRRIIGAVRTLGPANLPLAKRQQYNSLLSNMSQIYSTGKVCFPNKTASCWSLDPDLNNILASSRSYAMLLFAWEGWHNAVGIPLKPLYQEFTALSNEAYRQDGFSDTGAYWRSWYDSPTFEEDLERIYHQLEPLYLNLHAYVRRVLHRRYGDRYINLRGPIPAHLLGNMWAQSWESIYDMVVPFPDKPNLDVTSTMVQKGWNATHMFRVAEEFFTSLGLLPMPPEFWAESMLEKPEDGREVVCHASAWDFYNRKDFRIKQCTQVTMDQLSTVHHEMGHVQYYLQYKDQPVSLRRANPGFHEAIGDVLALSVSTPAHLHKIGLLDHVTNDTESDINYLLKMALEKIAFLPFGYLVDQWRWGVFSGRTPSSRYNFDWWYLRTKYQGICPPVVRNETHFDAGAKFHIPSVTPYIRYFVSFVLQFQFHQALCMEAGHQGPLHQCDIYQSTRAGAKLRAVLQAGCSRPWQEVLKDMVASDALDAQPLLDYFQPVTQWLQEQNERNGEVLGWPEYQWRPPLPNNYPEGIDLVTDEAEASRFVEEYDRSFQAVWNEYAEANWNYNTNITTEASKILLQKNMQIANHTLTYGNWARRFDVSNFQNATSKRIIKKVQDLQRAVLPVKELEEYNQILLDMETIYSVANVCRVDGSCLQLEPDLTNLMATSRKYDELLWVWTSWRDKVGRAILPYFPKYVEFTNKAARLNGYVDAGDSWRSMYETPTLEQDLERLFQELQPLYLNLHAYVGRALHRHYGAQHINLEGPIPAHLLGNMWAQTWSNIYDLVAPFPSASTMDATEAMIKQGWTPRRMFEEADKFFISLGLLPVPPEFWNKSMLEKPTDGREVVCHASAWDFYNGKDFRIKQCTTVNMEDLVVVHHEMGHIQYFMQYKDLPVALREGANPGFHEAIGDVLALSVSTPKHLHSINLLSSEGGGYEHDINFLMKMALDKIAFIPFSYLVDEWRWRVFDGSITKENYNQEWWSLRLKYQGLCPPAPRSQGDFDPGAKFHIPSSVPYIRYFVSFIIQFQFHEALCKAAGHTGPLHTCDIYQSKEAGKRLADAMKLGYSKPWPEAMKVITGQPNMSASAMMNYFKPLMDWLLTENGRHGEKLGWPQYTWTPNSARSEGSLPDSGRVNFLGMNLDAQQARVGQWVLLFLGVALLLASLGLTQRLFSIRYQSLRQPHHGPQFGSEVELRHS
Assay: hippuric acid release from HHL, cyanuric chloride colour at […] nm
Format: biochemical

- IC50: 0.764 µM
SMILES: NCCCC[C@H](N[C@@H](CCc1ccccc1)C(=O)O)C(=O)N1CCC[C@H]1C(=O)O [Lisinopril]

Source: doi:10.1101/2020.04.09.034306v1 (biorxiv, 2020)
